The values below come from US6797710B2, “Heterocyclic derivatives and their use as antithrombotic agents” (Akzo Nobel N.V., priority 1997, dated 2004).

Where a name gives a salt, the structure may show the parent alone. Read-outs that look alike come from different tables or passages of the source.

Series [1] concerns the target Human thrombin (Homo sapiens, UniProt P00734). The series is described as follows: Anti-thrombin assay (hydrolysis of chromogenic substrate S-2238). It counts as biochemical. Conditions: substrate S-2238, TNP buffer pH 7.4, 37° C., read-out: Antithrombin activity: IC50. The source says:
Thrombin (Factor IIa) is a factor in the coagulation cascade.
This assay for anti-thrombin activity in a buffer system was used to assess the IC50-value of a test compound.
Preparation of test and reference compound solutions
Each concentration is stepwise diluted with the vehicle to give concentrations of 10^−3, 10^−4 and 10^−5 mol·l^−1. The dilutions, including the stock solution, are used in the assay (final concentrations in the reaction mixture: 3·10^−3; 10^−3; 3·10^−4; 10^−4; 3·10^−5; 10^−5; 3·10^−6 and 10^−6 mol·l^−1, respectively).
At room temperature 0.075 ml and 0.025 ml test compound or reference compound solutions or vehicle are alternately pipetted into the wells of a microtiter plate and these solutions are diluted with 0.115 ml and 0.0165 ml TNP buffer, respectively. […] The plate is incubated (with shaking for 30 s) at 37° C.
All data are collected in an IBM personal computer using LOTUS-MEASURE. For each compound concentration (expressed in mol·l^−1 reaction mixture) and for the blank the absorbance is plotted versus the reaction time in min.
Evaluation of responses: For each final concentration the maximum absorbance was calculated from the assay plot.

A short description of series [2]: in vitro. Conditions: human, Caco-2.
Description: (§1) In this in vitro model the transepithelial transport properties of a compound are determined in monolayers of a human intestinal cell-line (Caco-2) in terms of a permeability coefficient (apparent permeability).
(§2) Caco-2 cells were obtained from the American Type Culture Collection and were used in passage nrs 25 to 35. Cells were maintained at 37° C. in 75 cm^2 culture flasks (Nunc) in Dulbecco's Modified Eagle's Medium (DNEM) supplemented with 1% of non-essential amino acid solution (100×), 10% of heat-inactivated fetal bovine serum, penicillin (100 U/ml) and streptomycin (100 μg/ml) in an atmosphere of 95% of air and 5% of CO2. The pH of the medium was 7.4. For experiments cells were grown on Transwell-COL™ collagen treated cell culture filter inserts (Costar, Cambridge, Mass., USA) with a surface area of 0.33 cm^2 The seeding density was 6.3×10^5 cells/cm^2. Culture medium was added on each side of the filter. The growth of the cells and degree of confluency was checked every 2-3 days microscopically. Confluent monolayers were used on day 23-24 after seeding, at which time the transepithelial electrical resistance of the monolayers was at a stable value of approximately 260 Ω·cm^2. Permeability experiments were performed with compound concentrations of 0.1 mM or 1 mM in the apical compartment in Hanks' Balanced Salt Solution with or without 0.5% (w/v) of bovine serum albumin. At 1, 2 and 3 hours after addition of compound to the cells the filters were placed into fresh acceptor compartments. In this way three one-hour samples were obtained. Compound concentration was determined in samples from acceptor compartments and donor compartment by HPLC or by measuring anti-thrombin activity. Permeability experiments of each compound were performed with 4 different filters. Results shown in the Table are means of the permeability between 2 and 3 hours after the start of the experiment of at least 2 filters.
For series [3], the target named is Bovine Factor Xa (Bos taurus, UniProt P00743). The series is described as follows: Anti-factor Xa assay (hydrolysis of chromogenic substrate S-2222). It counts as biochemical. To be noted: substrate S-2222, TNP buffer, 37° C. From the text: Activated Factor X (Xa) is a factor in the coagulation cascade. […] This assay for anti-Xa activity in a buffer system was used to assess the IC50-value of the test compound.
Sequence of Bovine Factor Xa (P00743 41-180 limits assumed): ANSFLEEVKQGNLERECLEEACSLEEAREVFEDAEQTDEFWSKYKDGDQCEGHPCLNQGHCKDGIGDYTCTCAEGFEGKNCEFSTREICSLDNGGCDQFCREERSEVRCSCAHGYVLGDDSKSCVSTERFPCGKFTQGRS
Sequence of Bovine Factor Xa (P00743 234-492 limits assumed): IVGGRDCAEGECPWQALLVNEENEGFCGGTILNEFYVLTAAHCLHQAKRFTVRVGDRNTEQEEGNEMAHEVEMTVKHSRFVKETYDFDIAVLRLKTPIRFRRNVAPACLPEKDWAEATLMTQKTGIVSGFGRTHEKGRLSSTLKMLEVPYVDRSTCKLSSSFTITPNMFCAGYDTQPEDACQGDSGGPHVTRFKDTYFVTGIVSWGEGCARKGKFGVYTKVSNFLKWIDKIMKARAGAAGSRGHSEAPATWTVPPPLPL
In general the followed procedure and test conditions were analogous to those of the anti-thrombin assay as described above. Differences are indicated below.

For series [4], the system named is Caco-2 cells. The series is described as follows: Caco-2 permeability. Conditions: 0.1 mM or 1 mM apical; mean of permeability between 2 and 3 hours, at least 2 filters. (Passage across Caco-2 layers is used to estimate intestinal permeability.)
Description: as §1, §2
Series [5] deals with Caco-2 cells.
Description: as §1, §2
The nature of series [6]: Caco-2 permeability. Conditions: human, Caco-2.
Description: as §1, §2

With `Nc1nccc2cc(CC(NC(=O)[C@H](CO)NS(=O)(=O)c3ccc4ccccc4c3)C(=O)N3CCCCC3)ccc12` (stereo partly drawn) [Example 7, (2S)-N-[1-[(1-amino-6-isoquinolinyl)methyl]-2-oxo-2-(1-piperidinyl)ethyl]-3-hydroxy-2-[(2-naphthalenylsulfonyl)amino]propanamide hydrochloride], in series [1], the IC50 amounted to 6.8 µM. Regarding `Cc1c(C)c(S(=O)(=O)NNC(=O)NC(Cc2ccc3c(N)nccc3c2)C(=O)N2CCCCC2)c(C)c2c1OC(C)(C)CC2` (stereo not shown) [Example 10, 3,4-dihydro-2,2,5,7,8-pentamethyl-2H-1-benzopyran-6-ylsulfonic acid 2-[[[1-[(1-amino-6-isoquinolinyl)methyl]-2-oxo-2-(1-pineridinyl)ethyl]amino]carbonyl]hydrazide hydrochloride], the IC50 in series [1] is 1.1 µM.

On to `Cc1c(C)c(S(=O)(=O)NCC(=O)NC(Cc2ccc3c(N)nccc3c2)C(=O)N2CCCCC2)c(C)c2c1OC(C)(C)CC2.Cl` (stereo not shown) [Example 5, N-[1-[(1-Amino-6-isoquinolinyl)methyl]-2-oxo-2-(1-piperidinyl)ethyl]-2-[[(3,4-dihydro-2,2,5,7,8-pentamethyl-2H-1-benzopyran-6-yl)sulfonyl]amino]acetamide hydrochloride], for which, in series [1], the IC50 was determined as 28 µM. Further, the Papp A→B in series [2] is 3.7 ×10⁻⁶ cm/s.

In series [3], `COC(=O)C(Cc1cc2c(N)nccc2s1)NC(=O)CNS(=O)(=O)c1ccc2ccccc2c1` (stereo not shown) [Example 3, 3-(4-aminothieno[3,2c]pyridin-2-yl)-2-[[2-[(2-naphthalenylsulfonyl)amino]acetyl]amino]-propionic acid methyl ester hydrochloride] registered an IC50 of 29 µM. Take `CC1CCN(C(=O)C(Cc2cc3c(N)nccc3s2)NS(=O)(=O)CC23CCC(CC2=O)C3(C)C)CC1` [Example 30, 1-[3-(4-aminothieno[3,2c]pyridin-2-yl)-2-[[[1-(1R,4S)-(7,7-dimethyl-2-oxobicyclo[2,2,1]hept-1-yl)methyl]sulfonyl]amino]-1-oxopropyl]-4-methylpiperidine hydrochloride]: the IC50 in series [1] is 35 µM. Consider `Cl.Nc1nccc2sc(CC(NC(=O)CNS(=O)(=O)c3ccc4ccccc4c3)C(=O)N3CCCCC3)cc12` (stereo not shown) [Example 4, N-[1-[(4-Aminothieno[3,2c]pyridin-2-yl)methyl]-2-oxo-2-(1-piperidinyl)ethyl]-2-[(2-naphthalenylsulfonyl)amino]acetamide hydrochloride], for which, in series [4], the “Caco-2 Papp (apparent permeability)” value was 2.5 ×10⁻⁶ cm/s. For `COc1ccc2ccc(S(=O)(=O)NC(Cc3cc4c(N)nccc4s3)C(=O)N3CCC(C)CC3)cc2c1` (stereo not shown) [Example 18, 1-[1-(4-aminothieno[3,2c]pyridin-2-yl)-2-[[(7-methoxy-2-naphthalenyl)sulfonyl]amino]-1-oxopropyl]-4-methylpiperidine hydrochloride], in series [1], the IC50 amounted to 0.53 µM. “1-[3-[3-(aminoiminomethyl)phenyl]-2-[(2-naphthalenyl-sulfonyl)amino]-1-oxopropyl]-4-(methylsulfonyl)piperazine [Pefa 1286]”: the “Caco-2 Papp (apparent permeability)” value in series [5] amounted to 0.11 ×10⁻⁶ cm/s. Turning to `COCCN(C)C(=O)C(Cc1cc2c(N)nccc2s1)NS(=O)(=O)c1ccc2ccc(OC)cc2c1` (stereo not shown) [Example 26, 3-(4-aminothieno[3,2c]pyridin-2-yl)-N-(2-methoxyethyl)-2-[[(7-methoxy-2-naphthalenyl)-sulfonyl]amino]-N-methyl-propanamide hydrochloride], the IC50 in series [3] stood at 14 µM.

As to `COC(=O)C(Cc1ccc2c(N)nccc2c1)NC(=O)CNS(=O)(=O)c1ccc2ccccc2c1` (stereo not shown) [Example 1, 3-(1-amino-6-isoquinolinyl)-2-[[2-[(2-naphthalenylsulfonyl)amino]acetyl]amino]propionic acid methyl ester hydrochloride], in series [3], the IC50 came out at 48 µM. `Cl.Nc1nccc2cc(CC(NC(=O)CNS(=O)(=O)c3ccc4ccccc4c3)C(=O)N3CCCCC3)ccc12` (stereo not shown) [Example 2, N-[1-[(1-amino-6-isoquinolinyl)methyl]-2-oxo-2-(1-piperidinyl)ethyl]-2-[(2-naphthalenyl-sulfonyl)amino]acetamide hydrochloride] returned a Papp A→B in series [6] of 1.9 ×10⁻⁶ cm/s. Regarding `CC1CCN(C(=O)C(Cc2cc3c(N)nccc3s2)NS(=O)(=O)c2ccc3oc4ccccc4c3c2)CC1` (stereo not shown) [Example 32, 1-[3-(4-aminothieno[3,2c]pyridin-2-yl)-2-[[(2-dibenzofuranyl)sulfonyl]amino]-1-oxopropyl]-4-methylpiperidine hydrochloride], the IC50 in series [1] is 1.44 µM.

For orientation: IC50 means the concentration that inhibits the measured activity by half. The term Papp A→B denotes the apparent permeability from the apical to the basolateral side of a cell layer. High values mean fast passage, low ones slow passage.
